Measurements from patent US20230364075A1, “[…] DOSAGE FORMS COMPRISING DEUTETRABENAZINE” (AUSPEX PHARMACEUTICALS, INC., priority 2020, published 2023).

Columns and labels:
[1] = Solubility of deutetrabenazine versus pH; format: physicochemical
Method: (§1) Deutetrabenazine is permeable through the small intestinal (SI) segments in a rat perfusion model.
The dosage forms disclosed herein were developed to achieve similar pharmacokinetics (PK) of 2 doses of AUSTEDO® 12 mg tablets with a single daily dose (QD).

[2] = test system: small intestinal (SI) segments; format: in vivo; conditions: rat
Description: as §1

[3] = parameters: species or system human; conditions: in vivo
[4] = in vivo; cited from earlier work
[5] = Particle size distribution by laser diffractometry (Mastersizer 3000); format: physicochemical; conditions: drug substance, Table 1
Method: Particle size distribution is determined by means of laser diffractometry. More specifically, the particle size distribution was determined using a Mastersizer 3000 from Malvern Instruments. The particle size determination may be carried out as a wet or dry measurement depending on the sample.
The deutetrabenazine particle size distributions following manufacture (untreated), micronization (air jet mill) and nano-milling (Dyno bead mill) are shown in Table 1.
Using a Mastersizer 3000 (Malvern Instruments), the following settings were used for dry measurement of the micro-milled and unmilled deutetrabenazine:
Using a Mastersizer 3000 (Malvern Instruments), the following settings were used for wet measurement of the nano-milled deutetrabenazine:
Deutetrabenazine particle size was reduced to a nanometer size (<1.0 micron) using a wet Dyno milling process in several passes. The milled deutetrabenazine was dispersed in excipient as above. The dispersion was passed through a 0.3 liter agitator bead mill containing 950 g of very high density zirconium oxide beads. The dispersion was passed through the agitator mill for up to 2 hrs to obtain particle size below 1.0 micron.

Row | Structure (SMILES) | solubility ([1]; acidic environment (pH<4)) | solubility ([1]; pH ≥4) | permeability through small intestinal (SI) segments [2] | ileum absorption ([2]; in vivo) | levels of absorption in the lower GI, order of segments ([2]; in vivo) | radioactive dose recovered in urine [3] | half-life of active metabolites relative to tetrabenazine [4] | D10 [5] | D50 [5] | D90 [5]
1 | [2H]C([2H])([2H])Oc1cc2c(cc1OC([2H])([2H])[2H])[C@H]1CC(=O)[C@H](CC(C)C)CN1CC2 [Deutetrabenazine, (RR,SS)-1,3,4,6,7,11b-hexahydro-9,10-di(methoxy-D3)-3-(2-methylpropyl)-2H-benzo[a]quinolizin-2-one] | relatively good solubility | < 2300 µg/mL | permeable | about 0.0006 cm/sec | Jejunum<Mid-small intestine<Colon<Ileum | approximately 80% | increased half-life |  |  | 
2 | [2H]C([2H])([2H])Oc1cc2c(cc1OC([2H])([2H])[2H])C1CC(=O)C(CC(C)C)CN1CC2 (stereo not shown) [nano-milled] |  |  |  |  |  |  |  | 0.07 μm | 0.14 μm | 0.34 μm
3 | [2H]C([2H])([2H])Oc1cc2c(cc1OC([2H])([2H])[2H])C1CC(=O)C(CC(C)C)CN1CC2 (stereo not shown) [micro-milled] |  |  |  |  |  |  |  | 1.08 μm | 3.31 μm | 7.05 μm
